Among the data in patent publication US20240148747A1, “SMALL MOLECULE ACTIVATORS OF YAP TRANSCRIPTIONAL ACTIVITY FOR REGENERATIVE ORGAN REPAIR” (THE SCRIPPS RESEARCH INSTITUTE, priority 2021, published 2024) are IC50 and EC50 values, retold here.

pEC50, pIC50: −log10 of the molar value. Read-outs that look alike come from different tables or passages of the source.

Usually pIC50 stands for the negative decadic logarithm of the IC50, by convention in mol/L. A high value points to a low IC50. The pEC50 is the negative decadic logarithm of the EC50, by convention in mol/L.

Data set [1] can be described thus: Cytotoxicity in the TEAD-LUC activation assay. The conditions noted are these: human.
The test system of data set [2] is YAP. As to the kind of experiment: TEAD-LUC activation assay (293A-TEAD-LUC reporter). It is filed as cell-based. The conditions noted are these: Homo sapiens, read-out: TEAD-LUC activation assay EC50.

As to `O=C(N[C@H]1C[C@@H]1n1cccc1)c1cc(-c2ccccc2)on1` [Compound 104], the pIC50 in data set [1] was under 4.70. The pEC50 in data set [2] (Table 3) is under 4.70.
The compound `O=C(NCCCc1nccs1)c1cc(C(F)(F)F)ncn1` [Compound 105] showed a pIC50 in data set [1] of under 4.70. Further, the pEC50 in data set [2] (Table 3) is under 4.70.
As to `S=C(NCCn1cccc1)c1cc(-c2ccccc2)on1` [Compound 106, N-(2-(1H-pyrrol-1-yl)ethyl)-5-phenylisoxazole-3-carbothioamide], in data set [1], the pIC50 was under 4.70. Also, in data set [2] (Table 3), the pEC50 was under 4.70.
The compound `CC(C)(CO)NC(=O)c1cc(-c2ccccc2)on1` [Compound 107] gave a pIC50 in data set [1] of under 4.70. The pEC50 in data set [2] (Table 4) is under 4.70.
Turning to `Cc1ccc(C2CCCN2C(=O)c2cc(-c3ccc4c(c3)OCO4)on2)cc1` (stereo not drawn) [Compound 108], in data set [1], the pIC50 is under 4.70. Also, the pEC50 in data set [2] (Table 4) is under 4.70.
Compound `COc1ccccc1-c1cc(C(=O)N2CCCC2c2cc(C)no2)no1` (stereo not drawn) [Compound 109] gave a pIC50 in data set [1] of under 4.70. Moreover, the pEC50 in data set [2] (Table 4) was under 4.70.
Take `O=C(NCCCn1cccc1)c1cc(-c2ccccc2)on1` [Compound 110]: the pIC50 in data set [1] was under 4.70. The pEC50 in data set [2] (Table 4) is 5.99.
On the same counts, the results for `O=C(NCCCn1cccn1)c1cc(-c2ccccc2)on1` [Compound 111] are under 4.70 and 5.80.
On the same counts, the results for `O=C(NCCCN1CCOCC1)c1cc(-c2ccccc2)on1` [Compound 112] are under 4.70 and 5.17.
On the same counts, the results for `O=C(NCCCn1cncn1)c1cc(-c2ccccc2)on1` [Compound 113] are under 4.70 and 5.49.
The compound `O=C(NCCCn1ccnc1)c1cc(-c2ccccc2)on1` [Compound 114] gave a pIC50 in data set [1] of under 4.70. In data set [2] (Table 4), the pEC50 was 5.53.
For `O=C(c1cc(-c2ccccc2)on1)N1CCC(n2cccc2)CC1` [Compound 115], in that order: under 4.70 and under 4.70.
In turn, `Cc1ccc(-c2cc(C(=O)NCCC(=O)NC(C)C)no2)cc1C` [Compound 116] showed a pIC50 in data set [1] of 6.00. In data set [2] (Table 4), the negative-log EC50 (pEC50) is under 4.70.
On the same counts, the results for `CCN(CC)CCCNC(=O)c1cc(-c2ccc(Cl)cc2)on1` [Compound 117] are under 4.70 and under 4.70.
For `CCN1CCN(C(CNC(=O)c2cc(-c3ccccc3)on2)c2ccc(OC)cc2)CC1` (stereo not drawn) [Compound 118], in that order: under 4.70 and under 4.70.
On the same counts, the results for `Cc1ccc(-c2cc(C(=O)NCCC(=O)N(C)Cc3ccccc3)no2)cc1` [Compound 119] are under 4.70 and under 4.70.
For the compound `O=C(NCCCN1CCOCC1)c1cc(-c2ccc(Cl)c(Cl)c2)on1` [Compound 120], the pIC50 in data set [1] is under 4.70. Moreover, in data set [2] (Table 4), the pEC50 was under 4.70.
Compound `O=C(NCCN1CCOCC1)c1cc(-c2ccccc2)on1` [Compound 122] gave a pIC50 in data set [1] of under 4.70. The pEC50 in data set [2] (Table 4) is 5.26.
On the same counts, the results for `CC(=O)Nc1cccc(NC(=O)c2cc(-c3ccccc3)on2)c1` [Compound 123] are under 4.70 and under 4.70.
Take `CC1CN(C(=O)CCNC(=O)c2cc(-c3ccccc3)on2)CC(C)O1` (stereo not drawn) [Compound 124]: the pIC50 in data set [1] was under 4.70. In data set [2] (Table 4), the pEC50 is 5.17.
For `CCN1C(=O)NC(=O)C12CCN(C(=O)c1cc(-c3ccccc3)on1)CC2` [Compound 125], in that order: under 4.70 and under 4.70.
For `CN(C)CCN(C(=O)c1cc(-c2ccccc2)on1)c1ccccc1` [Compound 126], in that order: under 4.70 and under 4.70.
On the same counts, the results for `CN1CCN(CCCNC(=O)c2cc(-c3ccccc3)on2)CC1` [Compound 127, N-[3-(4-methylpiperazin-1-yl)propyl]-5-phenyl-1,2-oxazole-3-carboxamide] are under 4.70 and 5.57.
Take `CN1CCN(CCNC(=O)c2cc(-c3ccccc3)on2)CC1` [Compound 128]: the pIC50 in data set [1] was under 4.70. Besides, the pEC50 in data set [2] (Table 4) is 5.22.
On the same counts, the results for `COc1ccc(OC)c(-c2cc(C(=O)NCCc3nc(C)cs3)no2)c1` [Compound 130] are under 4.70 and under 4.70.
In data set [1], `Cc1ccc(NCCCNC(=O)c2cc(-c3ccccc3)on2)nc1` [Compound 131] gave a pIC50 of under 4.70. In data set [2] (Table 4), the pEC50 was 5.54.
With `Cc1ccc(C(=O)NC2CCN(C(=O)c3cc(-c4ccccc4)on3)CC2)o1` [Compound 132], the pIC50 in data set [1] is under 4.70. Besides, in data set [2] (Table 4), the pEC50 is under 4.70.
`NC(=O)CCN(Cc1ccccc1)C(=O)c1cc(-c2ccccc2)on1` [Compound 133]: the pIC50 in data set [1] was under 4.70. In data set [2] (Table 4), the negative logarithm of the EC50 (pEC50) is under 4.70.
`O=C(NCCCN1CCOCC1)c1cc(-c2ccc(Cl)cc2)on1` [Compound 134] showed a negative-log IC50 (pIC50) in data set [1] of under 4.70. Also, the pEC50 in data set [2] (Table 4) was under 4.70.
Turning to `O=C(NCCCN1CCOCC1)c1cc(-c2ccc(F)cc2)on1` [Compound 135], in data set [1], the pIC50 is under 4.70. Moreover, the pEC50 in data set [2] (Table 4) was under 4.70.
The compound `O=C(NCCN1CCOCC1)c1cc(-c2ccc(F)cc2)on1` [Compound 136] had a pIC50 in data set [1] of under 4.70. In data set [2] (Table 4), the pEC50 was 5.26.
For `O=C(c1cc(-c2ccccc2)on1)N1CCC(Nc2ncccn2)CC1` [Compound 137], in that order: under 4.70 and under 4.70.
On to `O=C(c1cc(-c2ccccc2)on1)N1CCC(c2nc3ccccc3s2)CC1` [Compound 138], for which the pIC50 in data set [1] was under 4.70. Moreover, the pEC50 in data set [2] (Table 4) was under 4.70.
`CC(=O)N1CCCN(C(=O)c2cc(-c3ccccc3)on2)CC1` [Compound 139] showed a pIC50 in data set [1] of under 4.70. Further, the pEC50 in data set [2] (Table 4) is under 4.70.
On to `O=C(c1cc(-c2ccccc2)on1)N1CCCN(c2cccnn2)CC1` [Compound 140], for which the pIC50 in data set [1] is under 4.70. Further, the pEC50 in data set [2] (Table 4) is under 4.70.
`O=C(NCCCN1CCCCCC1=O)c1cc(-c2ccccc2)on1` [Compound 141] had a pIC50 in data set [1] of under 4.70. The pEC50 in data set [2] (Table 4) was 5.40.
On the same counts, the results for `Cc1nc(CCCNC(=O)c2cc(-c3ccccc3)on2)sc1C` [Compound 142] are under 4.70 and 5.33.
For `O=C(Nc1ccccc1-n1cncn1)c1cc(-c2ccccc2)on1` [Compound 143], in that order: under 4.70 and under 4.70.
On the same counts, the results for `O=C(Nc1cccc(N2CCOC2=O)c1)c1cc(-c2ccccc2)on1` [Compound 144] are under 4.70 and 5.00.
On to `CCN1C(=O)CCc2cc(NC(=O)c3n[nH]c4ccccc34)ccc21` [Compound 145], for which the pIC50 in data set [1] was under 4.70. In addition, in data set [2] (Table 4), the pEC50 was 5.70.
For `CN1C(=O)CCc2cc(NC(=O)c3ccncc3)ccc21` [Compound 146], in that order: under 4.70 and 4.82.
On the same counts, the results for `CN1C(=O)CCc2cc(NC(=O)c3n[nH]c4ccccc34)ccc21` [Compound 147] are under 4.70 and 5.60.
For `O=C(NCCc1ccccc1)c1n[nH]c2ccccc12` [Compound 148], in that order: under 4.70 and under 4.70.
`CCCN1C(=O)CCc2cc(NC(=O)c3ccn(CC)n3)ccc21` [Compound 149] showed a pIC50 in data set [1] of under 4.70. In addition, in data set [2] (Table 4), the pEC50 is 5.52.
On the same counts, the results for `Cc1cccc(C)c1NC(=O)c1n[nH]c(=O)c2ccccc12` [Compound 150] are under 4.70 and 5.00.
